Results published in a melting point compilation (Tetko et al.; mined from patent text by program, amines drawn as free bases though some values may be those of a salt).

Compound	melting point
CCCOc1ccc(CCCOc2ccc3c(c2)C=C(C(=O)O)CCS3(=O)=O)cc1	168 to 170 °C
N#CSc1c(-c2ncon2)nn(-c2c(Cl)cc(C(F)(F)F)cc2Cl)c1N	195 to 198 °C
O=C1CCCN1CCc1c2ccccc2n2c1[nH]c(=O)c1ccccc12	154 to 155 °C
COC(=O)Nc1ccccc1CSc1ncc(C(F)(F)F)cc1Cl	111 to 113 °C
COC(=O)CS(=O)(=O)Nc1nc(-c2ncccc2C)cc2cccnc12	147 to 148 °C
COc1ccnc(C(C)O)c1 (single isomer, unassigned; (+))	92 °C
CC(C)CCC(=O)NC(C)(Cc1c[nH]c2ccccc12)C(=O)NC(Cc1ccccc1)C(N)=O (racemic)	170 to 171 °C
c1ccc(CN2CCc3[nH]c4cccc(-c5ccccc5)c4c3CC2)cc1	161 to 163 °C
COCCNC(=O)c1cccc(-c2cccc3cc(Cc4cc(F)cc(Cl)c4)sc23)c1F	124 to 125 °C
Cc1ccccc1-c1noc2c3c(c(Cl)cc12)OC(C(=O)O)C3 (stereo unspecified)	192 to 195 °C
N=c1sc2ccccc2n1C(C=O)c1ccc(Cl)cc1 (stereo unspecified)	114 °C
O=C(O)c1cccc(Oc2ccc(C(F)(F)F)cc2Cl)c1	116 to 119 °C
O=C(Nc1ncnc2c1ncn2C1OC(CO)C(O)C1O)c1ccccc1 (stereo unspecified)	151 to 153 °C
CCOC(=O)CNc1nc2cccccc-2c1C#N	186 to 188 °C
Nc1ncc2c(n1)CCC(CNC(=O)[C@@H]1CCCN1C(=O)[C@@H](CC1CCCCC1)NS(=O)(=O)Cc1ccccc1)C2 (stereo partly specified)	118 to 121 °C
O=C(c1ccc2c(c1)CCO2)N1Cc2cccnc2Nc2ccccc21	188 °C
CCn1ncc2c1ncc1c(=O)n3nccc3n(CCC(C)C)c12	167 to 168 °C
COc1ccc(C(=O)c2ccc(F)cc2)c(F)c1	89.7 to 90.1 °C
CC(C)(C)OC(=O)N1CCC2(CC1)CC(=O)N(O)C2=O	151 to 154 °C
CC(C)(C)c1ccc(/C=C/C(=O)Nc2ccc3nccnc3c2)cc1	229 to 230 °C
O=C(O)c1ccc(NCCCOc2ccc(Cl)cc2)cc1	180 to 181 °C
Nc1nc2ccccc2c2c1ncn2CCCCNC(=O)c1cccc(Oc2ccccc2)c1	105 to 107 °C
Cc1cc(C)c(C2C(=O)N3CCOCCN3C2=O)c(C)c1	248 to 250 °C
CCOC(=O)c1cn(Cc2cccnc2)nc1OCc1ccc(OCc2nc(-c3ccco3)oc2C)c(OC)c1	131 to 132 °C
CCCCCOc1cc2c(cc1C(=O)Oc1ccc(C(=O)O)cn1)C(C)(C)CCC2(C)C	132 to 133 °C
CC1OC(Cn2cncn2)(c2ccc(Cl)cc2Cl)C1(C)C (stereo unspecified)	118 to 125 °C

Compound	melting point
CCc1noc(-c2cc3c4cc(N(C)C)ccc4n(CCCCl)c3cn2)n1	183 to 186 °C
COc1cccc(CNc2n[nH]c(N)c2C#N)c1	151 to 153 °C
CC(C)(C)c1csc(-c2cc3cc(C=O)ccc3o2)n1	83 to 84 °C
O=c1[nH]c2ccc(Br)cc2n1Cc1ccccc1	245 to 246 °C
Cc1ccc(C(=O)Nc2ccccc2C(CCC(=O)O)=NO)cc1	165 to 168 °C
CC1CN(c2cccc(C(F)(F)F)c2)N=C1NC(=O)C(F)(F)F (stereo unspecified)	121 to 122 °C
COC(=O)c1cccc(-c2nc(COc3ccc(C=O)cc3)c(C)o2)c1	103 to 104 °C
CCC(CC)N1CCNc2c1cc(C)nc2Oc1c(C)cc(C)cc1C	138 to 140 °C
C=Cc1c(N)nc(-c2ccc(Cl)c(OC)c2F)nc1C(=O)OCc1ccccc1	119 to 121 °C
N#Cc1ccc(N2CCOCC2)c2ccccc12	128 to 129 °C
COc1ccc(-c2cnc(N3CCc4c([nH]c5ccccc45)C3c3ccc4c(c3)OCO4)nc2)cc1OC (stereo unspecified)	173 to 175 °C
C=C(C)C(=O)OCCN(C(=O)c1ccc(C(=O)O)cc1C(=O)O)C(C)(C)C	74 °C
C#CCN1N=C(c2ccc(Cl)cc2)CN(C)C1=O	159 to 160 °C
NCCNC(=O)c1nc(Cl)c(N)nc1N	173 to 174 °C
COc1cc(-c2nc(N(C)CCO)c3c(C)c(C#N)sc3n2)cc(OC)c1OC	164 to 166 °C
COC(=O)/C=C/n1cnc2ccc(C3CC3)cc2c1=O	178 °C
O=S(=O)(C(=CNc1ccccn1)c1ccccc1)c1ccccc1	159 to 160 °C
CCc1nn(C(=O)NS(=O)(=O)c2c(C)cccc2Cl)c(=O)n1C	176 °C
CCOC(=O)CN(C)S(=O)(=O)c1ccsc1C(=O)OC	84 to 85 °C
CC(C)c1nn(C(=O)NC(C)(C)CCc2ccccc2Cl)c(=O)n1N	159 °C
COC(=O)ONC(=N)Nc1ccc(C(=O)OC(C)(C)C)cc1	122 to 126 °C
O=C(NCCCOc1ccc(-n2ccnc2)cc1)c1ccc(Br)cc1	183 to 185 °C
CC(=O)N(C)c1c(N(C)C)cc(CC(C#N)=CNc2ccccc2)cc1N(C)C	190 to 200 °C
Cc1cc(Cl)c(C(=O)OC(C)c2nc3c(c(=O)n(C)c(=O)n3C)n2C)c(C)n1 (stereo unspecified)	168 to 170 °C
Nc1nc(-c2ccccc2)c(F)c(=O)[nH]1	276 to 278 °C
O=c1c2c(Cl)cccc2nc(CSc2ncnc3[nH]cnc23)n1-c1ccccc1F	244 °C

Compound	melting point
NS(=O)(=O)NC(=O)CCCCC1CCSS1 (stereo unspecified)	141 to 142 °C
Cc1ccc(C2(CCC(=O)O)NC(=O)NC2=O)cc1Cl (stereo unspecified)	196 to 199 °C
CC(C)N(Sc1nc2ccccc2s1)C(C)C	57 to 59 °C
C#Cc1ccc(C(=O)NCC(N)C(c2ccccc2)(c2ccccc2)c2ccccc2)cc1 (stereo unspecified)	50 to 51 °C
CCOC(=O)CCCNC(=O)Cn1c(-c2ccc(Cl)cc2)nc2cccnc21	169 to 171 °C
CC(Oc1ccc(Oc2ccc(C(F)(F)F)cn2)cc1)C(=O)N1CCCO1 (stereo unspecified)	83 to 85 °C
O=C(O)CC(Sc1nc2ccccc2s1)C(=O)O (stereo unspecified)	165 to 168 °C
COC(=O)c1ccc(Br)c(S(C)(=O)=O)c1	148 to 149 °C
N#Cc1cnn2c(C(F)(F)F)cc(-c3ccc(Cl)cc3Cl)nc12	180 °C
O=c1c2ccc(O)cc2[nH]n1Cc1ccccc1	206 to 207 °C
CC1(c2ccc(Br)cc2)Cc2cc(O)c(Cl)c(Cl)c2C1=O (stereo unspecified)	221 to 223 °C
CC(=O)NC[C@H]1CN(c2cc(F)c(N3CCC4(CC3)CO4)c(F)c2)C(=O)O1	160 to 162 °C
CCOC(=O)c1cn(-c2ncc(Cl)cc2Cl)cn1	114 to 115 °C
CN(C)C(=O)c1ncccc1OC1SCC(O)C(O)C1O (stereo unspecified)	80 to 85 °C
Nc1nc(O)nc2nc(-c3ccco3)nn12	> 300 °C
CS(=O)(=O)c1ccc(-n2cncc2-c2ccccc2F)cc1	188 to 189 °C
C=C(C)COc1ccc2c(C)cc(=O)oc2c1C(=O)C=Cc1cc(OC)c(OC)c(OC)c1	128 to 130 °C
CCOc1ccc2c(c1)n(C1CCCC1)c(=O)n2S(=O)(=O)c1ccc(C(=O)OC)cc1OC	151 °C
N#CN=C(Nc1cccnc1)NC(NC(=O)c1cccc(Cl)c1)C(F)(F)C(F)(F)F (stereo unspecified)	183 to 185 °C
COc1ccc2c(c1)Sc1ccccc1C(=S)N2	239 to 241 °C
Cc1nnc2ccc(-c3cccc(NC(=O)C4CCC4)c3)nn12	242 to 245 °C
O=C(Nc1nc2ccc(C(F)(F)F)cc2s1)c1c(F)cccc1F	256 to 257 °C
Cc1nc(-n2cnn(Cc3ccc(F)cc3)c2=O)sc1C(=O)NCc1cn(C)cn1	225 to 226 °C
CNC(CO)CCOc1cccc2ccccc12 (stereo unspecified)	101 to 102 °C
CC1CCCN1CCCOc1ccc(C2CCC(O)CC2)cc1 (stereo unspecified)	80 °C
O=C1C=CC(=O)C(CC(Cl)(Cl)Cl)=C1	115 °C

Compound	melting point
CCOP(=O)(Cc1ccc(NC(=O)/C=C/c2cn(Cc3ccccc3)nc2-c2ccc(F)cc2)cc1)OCC	199 to 200 °C
O=C1NC(=O)C2(c3ccc4ccc(Cl)nc4n3)C=CC=CC12 (stereo unspecified)	268 °C
CN(C)CCc1c[nH]c2ccc([N+](=O)[O-])cc12	132 to 135 °C
COC(=O)C1=C(C)NC2=C(C(=O)OC2C)C1c1ccccc1Cl (stereo unspecified)	228 to 233 °C
c1ccc(Oc2cccc(CSc3nc4cnccc4[nH]3)c2)cc1	156 to 158 °C
O=C(O)COc1cc2c(c(Cl)c1Cl)C(=O)c1ccccc1-2	305 to 306 °C
CNc1nc(N)nc(NC)n1	291 °C
CS(=O)(=O)OCCOc1cc([N+](=O)[O-])ccc1N	132 to 135 °C
CC(C)(C)OC(=O)Nc1cc(OCC#N)c(C#Cc2ccccc2)cc1[N+](=O)[O-]	170 °C
CCOC(=O)C1=C(O)c2cc3ccccc3n2CCC1	74 to 81 °C
C#CCN(Cc1ccc2nc(C)[nH]c(=O)c2c1)c1ccc(C(=O)NCC2CCNCC2)cc1	130 to 133 °C
COc1ccc(-c2coc3ccc(C(=O)NNC(C)=O)cc23)cc1	219 to 220 °C
COC(=O)c1ccnc2ccc(C(=O)c3ccc(Cl)cc3)cc12	126 °C
CCOC(=O)Cc1ccccc1NC(=O)c1sc2ccc(OC)cc2c1OC(C)C	105 to 106 °C
CC1(CCCN2CC[C@H](CNC(=O)c3cc(Cl)c(N)c4c3OCC4)[C@H](O)C2)OCCO1 (relative stereo)	118 °C
COc1cc2c(cc1OC)C(Oc1ccc(C(F)(F)F)cc1)CN(CC#N)CC2 (stereo unspecified)	93 to 94 °C
COc1ccccc1N1CCN(CCCn2c(=O)[nH]c3c(c2=O)CCCC3)CC1	212 to 214 °C
O=C(NC(Cc1ccc(OCc2ccccc2)cc1)C(=O)O)c1nc2ccc(-c3ccc(Cl)cc3)cn2c1Cl (stereo unspecified)	242 to 244 °C
COC(=O)c1c(Sc2ccc(OC)cc2)nc(-c2ccccc2)n1Cc1cc2c(cc1Cl)OCO2	161 °C
CC(C)(C)c1ccc(S(=O)(=O)/C=C/C(N)=O)cc1	151 °C
CC(=O)Oc1cc(-c2ccccc2)ccc1C1(OC(C)=O)C(=O)c2ccccc2C1=O	165 to 167 °C
Cc1c(OCc2ccccc2)c(=O)ccn1CCC(=O)O	81 to 83 °C
CNC[C@H]1CC[C@H](c2nc3ccccc3[nH]2)CC1	232 to 235 °C
